Consider ten compounds from ChEMBL document CHEMBL4431386, “Potent selective monoamine oxidase B inhibition by maackiain, a pterocarpan from the roots of Sophora flavescens” (Bioorg Med Chem Lett, 2016).

In series [1] the target is T1, Amine oxidase [flavin-containing] B (Mus musculus, UniProt Q8BW75).
T1 sequence (Q8BW75 whole entry): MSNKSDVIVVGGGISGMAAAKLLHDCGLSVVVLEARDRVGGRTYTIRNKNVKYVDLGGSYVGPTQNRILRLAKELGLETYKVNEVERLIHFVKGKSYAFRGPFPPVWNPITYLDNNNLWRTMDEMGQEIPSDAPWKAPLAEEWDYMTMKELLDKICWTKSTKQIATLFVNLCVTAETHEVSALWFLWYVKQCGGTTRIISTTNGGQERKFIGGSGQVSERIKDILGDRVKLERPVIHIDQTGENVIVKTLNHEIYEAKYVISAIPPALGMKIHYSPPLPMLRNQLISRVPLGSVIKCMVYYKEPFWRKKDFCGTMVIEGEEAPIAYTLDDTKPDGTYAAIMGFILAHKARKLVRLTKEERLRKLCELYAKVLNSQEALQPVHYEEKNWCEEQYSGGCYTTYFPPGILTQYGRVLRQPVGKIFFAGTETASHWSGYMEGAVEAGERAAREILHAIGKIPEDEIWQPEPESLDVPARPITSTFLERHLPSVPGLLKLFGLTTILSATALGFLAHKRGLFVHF
Put plainly: Inhibition of mouse MAO-B preincubated for 15 mins followed by addition of kynuramine as substrate measured after 30 mins by fluorometric analysis.

Series [2] deals with T2, Amine oxidase [flavin-containing] B (Homo sapiens, UniProt P27338).
T2 sequence (P27338 whole entry): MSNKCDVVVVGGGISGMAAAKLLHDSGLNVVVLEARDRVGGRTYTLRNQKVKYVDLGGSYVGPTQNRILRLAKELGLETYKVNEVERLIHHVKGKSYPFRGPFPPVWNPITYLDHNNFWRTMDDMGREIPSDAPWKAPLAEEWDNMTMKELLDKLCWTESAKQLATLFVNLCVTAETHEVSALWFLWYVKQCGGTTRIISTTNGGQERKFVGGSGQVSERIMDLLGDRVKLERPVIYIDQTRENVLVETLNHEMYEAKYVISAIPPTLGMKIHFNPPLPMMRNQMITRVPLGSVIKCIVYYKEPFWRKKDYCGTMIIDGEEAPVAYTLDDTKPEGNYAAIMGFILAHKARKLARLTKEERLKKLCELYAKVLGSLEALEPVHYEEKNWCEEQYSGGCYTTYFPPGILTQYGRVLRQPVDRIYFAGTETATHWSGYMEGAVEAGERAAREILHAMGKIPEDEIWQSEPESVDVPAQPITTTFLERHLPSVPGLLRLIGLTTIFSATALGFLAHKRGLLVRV
The series is described as follows: Inhibition of recombinant human MAO-B expressed in baculovirus infected BTI insect cells preincubated for 10 mins followed by addition of benzylamine as substrate. It is filed as cell-based.

Series [3] addresses T3, Amine oxidase [flavin-containing] A (Homo sapiens, UniProt P21397).
T3 sequence (P21397 whole entry): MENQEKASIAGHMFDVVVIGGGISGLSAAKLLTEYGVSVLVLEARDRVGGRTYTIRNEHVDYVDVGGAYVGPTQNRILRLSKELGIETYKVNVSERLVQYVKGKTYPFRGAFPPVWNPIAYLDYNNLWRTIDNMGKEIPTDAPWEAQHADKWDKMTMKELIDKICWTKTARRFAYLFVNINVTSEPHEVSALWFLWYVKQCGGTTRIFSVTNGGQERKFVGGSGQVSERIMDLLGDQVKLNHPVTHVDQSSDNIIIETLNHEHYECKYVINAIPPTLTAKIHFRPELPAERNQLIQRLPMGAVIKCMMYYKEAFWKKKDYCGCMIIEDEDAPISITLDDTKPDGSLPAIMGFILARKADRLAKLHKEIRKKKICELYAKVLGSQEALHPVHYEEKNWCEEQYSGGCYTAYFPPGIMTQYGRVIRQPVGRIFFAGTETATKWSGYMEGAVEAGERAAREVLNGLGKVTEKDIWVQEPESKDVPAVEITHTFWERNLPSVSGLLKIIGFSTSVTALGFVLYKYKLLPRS
The series is described as follows: Inhibition of recombinant human MAO-A expressed in baculovirus infected BTI insect cells preincubated for 10 mins followed by addition of kynuramine as substrate.

For the next series, the species on record is Homo sapiens. Put plainly: Selectivity index, ratio of IC50 for recombinant human MAO-A expressed in baculovirus infected BTI insect cells to IC50 for recombinant human MAO-B expressed in baculovirus infected BTI insect cells.
Series [4] has as its target T2, Amine oxidase [flavin-containing] B. Put plainly: Reversible inhibition of recombinant human MAO-B expressed in baculovirus infected BTI insect cells assessed as residual activity at 20 uM preincubated for 10 mins followed by addition of 2 mM of benzylamine as substrate and further addition of 2 mM of benzylamine at the end of first reaction. The note with it: read-out: Activity.

Series [5] has the same target. Put plainly: Time-dependent inhibition of recombinant human MAO-B expressed in baculovirus infected BTI insect cells at 20 uM pretreated with compound up to 30 mins followed by addition of benzylamine as substrate.
Series [6] shares this target. The series is described as follows: Inhibition of recombinant human MAO-B expressed in baculovirus infected BTI insect cells assessed as residual activity at 20 uM preincubated for 10 mins followed by addition of 2 mM of benzylamine as substrate. The note with it: read-out: Activity.
The target of series [7] is T4, Amine oxidase [flavin-containing] A (Mus musculus, UniProt Q64133).
T4 sequence (Q64133 whole entry): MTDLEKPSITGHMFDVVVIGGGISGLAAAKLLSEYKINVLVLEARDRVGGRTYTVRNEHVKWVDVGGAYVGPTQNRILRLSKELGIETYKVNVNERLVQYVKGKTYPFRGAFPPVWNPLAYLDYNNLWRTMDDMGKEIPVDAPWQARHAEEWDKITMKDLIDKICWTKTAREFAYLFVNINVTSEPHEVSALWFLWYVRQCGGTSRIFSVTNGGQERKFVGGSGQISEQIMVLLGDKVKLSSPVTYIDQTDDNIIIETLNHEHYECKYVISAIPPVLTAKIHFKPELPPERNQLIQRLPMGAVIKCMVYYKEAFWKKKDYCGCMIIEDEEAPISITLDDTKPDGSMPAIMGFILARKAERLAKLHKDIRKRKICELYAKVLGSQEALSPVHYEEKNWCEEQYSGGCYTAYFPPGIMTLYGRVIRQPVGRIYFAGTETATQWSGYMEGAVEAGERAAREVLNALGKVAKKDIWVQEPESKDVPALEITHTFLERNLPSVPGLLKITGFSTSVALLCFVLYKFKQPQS
The series is described as follows: Inhibition of mouse MAO-A preincubated for 15 mins followed by addition of kynuramine as substrate measured after 30 mins by fluorometric analysis.

Series [8] addresses T2, Amine oxidase [flavin-containing] B. Put plainly: Inhibition of recombinant human MAO-B expressed in baculovirus infected BTI insect cells assessed as residual activity at 8 uM preincubated for 10 mins followed by addition of 2 mM of benzylamine as substrate. The note with it: read-out: Activity.
For series [9] the target is unchanged. The series is described as follows: Reversible inhibition of recombinant human MAO-B expressed in baculovirus infected BTI insect cells assessed as residual activity at 8 uM preincubated for 10 mins followed by addition of 2 mM of benzylamine as substrate and further addition of 2 mM of benzylamine at the end of first reaction. The note with it: read-out: Activity.

The target is the same in series [10]. Put plainly: Time-dependent inhibition of recombinant human MAO-B expressed in baculovirus infected BTI insect cells at 8 uM pretreated with compound up to 30 mins followed by addition of benzylamine as substrate.
Series [11] has the same target. Put plainly: Inhibition of recombinant human MAO-B expressed in baculovirus infected BTI insect cells assessed as residual activity at 1.5 uM preincubated for 10 mins followed by addition of 2 mM of benzylamine as substrate. The note with it: read-out: Activity.
Series [12] shares this target. Put plainly: Reversible inhibition of recombinant human MAO-B expressed in baculovirus infected BTI insect cells assessed as residual activity at 1.5 uM preincubated for 10 mins followed by addition of 2 mM of benzylamine as substrate and further addition of 2 mM of benzylamine at the end of first reaction. The note with it: read-out: Activity.
For series [13] the target is unchanged. Put plainly: Time-dependent inhibition of recombinant human MAO-B expressed in baculovirus infected BTI insect cells at 1.5 uM pretreated with compound up to 30 mins followed by addition of benzylamine as substrate.
The target is the same in series [14]. Put plainly: Competitive inhibition of recombinant human MAO-B expressed in baculovirus infected BTI insect cells using benzylamine as substrate by Lineweaver-Burk plot analysis.
Series [15] addresses T1, Amine oxidase [flavin-containing] B. Put plainly: Competitive inhibition of mouse brain mitochondrial MAO-B using kynuramine as substrate by Lineweaver-Burk plot analysis.

pIC50, pKi: −log10 of the molar value. Bounds are passed on as bounds.

With `C=C(C)[C@H](O)CC/C(C)=C/COc1ccc2ccc(=O)oc2c1`, the pIC50 (commonly the IC50 on a negative log10 scale, so that one unit is a factor of ten) in series [1] was 6.30.

As to `CC(C)=CCC/C(C)=C/COc1ccc2ccc(=O)oc2c1`, in [1], the pIC50 is 6.22.

With `CC(C)=CCc1c(O)cc(O)c2c1O[C@H](c1ccc(O)cc1)CC2=O`, the pIC50 in [2] is < 4.00; in series [3], 4.41. Moreover, the Ratio IC50 in the series listed under Homo sapiens was < 0.39.

Turning to `COc1ccc2c(c1O)OC[C@H]1c3cc4c(cc3O[C@@H]21)OCO4`, the activity at 20 µM in [4] was found to be 54.9%; in [6], 26.3%. For the same compound, the pIC50 in series [2] was 4.99; in series [3], 4.69. Moreover, in series [5], the TDI result is “Not Active”. Further, the Ratio IC50 in the series filed under Homo sapiens is 2.

With `COc1ccc(-c2coc3cc(O)c(CC=C(C)C)c(O)c3c2=O)cc1`, the pIC50 in series [1] was 6.10.

`CC(C)=CCc1c(O)c(CC=C(C)C)c2c(c1O)C(=O)C[C@@H](c1ccc(O)cc1O)O2`: the pIC50 in series [2] and in series [3] was < 4.00 each time.

Turning to `COc1ccc(-c2coc3cc(O)ccc3c2=O)cc1` [FORMONONETIN], the pIC50 in series [1] is 4.96; in series [2], 4.59; in [7], 4.67; in series [3] it was 4.51. Also, the Ratio IC50 in the series listed under Homo sapiens was 1.2.

Turning to `O=c1c(-c2ccc(O)cc2)coc2cc(O)cc(O)c12` [GENISTEIN], the activity at 8 µM in series [8] came to 25.3%; in [9], 59.5%. For the same compound, in series [10], the TDI entry is “Not Active”.

Turning to `Oc1ccc2c(c1)OC[C@H]1c3cc4c(cc3O[C@@H]21)OCO4` [MAACKIAIN], the values for the activity at 1.5 µM in series [11] and in series [12] were 28.7% and 66%, respectively. Further, the pIC50 in [2] was 6.17; in series [3], 4.07. Further, the TDI entry in series [13] is “Not Active”. In addition, the pKi (in general, −log10 of the Ki, conventionally taken in molar units) in [14] was 7.27. In addition, the Ratio IC50 in the series filed under Homo sapiens amounted to 126.

For `COC(=O)/C=C/C=C/c1ccc2c(c1)OCO2` [METHYL PIPERATE], the pKi in [15] is 5.89.
